Here are results for 16 compounds from patent US4789667A, “External pharmaceutical composition and methods of use” (priority 1984, dated 1988).

The test deals with carrageenan-induced edema. Briefly: Carrageenan-induced edema inhibiting effect of betamethasone valerate ointment. It counts as in vivo. The note with it: rat paw, 0.15 part betamethasone valerate, 9.85 parts enhancer, vs gel ointment base. As for the experimental part:
The carrageenan-induced edema inhibiting effect of the ointment was examined in accordance with the method of E. Passarella [Arzneim, Forsch. 30 (I), No. 4, pages 647-651 (1980)]. Specifically, 0.1 ml of a 1% carrageenan suspension in 0.9% NaCl solution was injected into the tip of the right paw of each rat (body weight 150-175 g). The volume of the paw was measured before the administation of carrageenan and 3, 5 and 6 hours after the carrageenan administration by a mercury displacement device. The ointment was well rubbed into the inflamed site in an amount of 100 mg.
These ointments were applied to the tip of the paw, and their edema inhibiting effects were examined.
The percent edema inhibitions were calculated on the basis of the edema formation ratio of a rat to which only the gel ointment base was administered.

`CCCCCCCCCCOC(=O)C1CCC(=O)N1` (racemic) [Compound (102), Decyl DL-pyroglutamate]: the Edema inhibition (3 hrs.) is 16.3%, the Edema inhibition (6 hrs.) came out at 39.7% and the Edema inhibition (9 hrs.) is given as 38.3%.

In the case of `CCCCCCCCCCCOC(=O)C1CCC(=O)N1` (racemic) [Compound (104), Undecyl DL-pyroglutamate], the Edema inhibition (3 hrs.) came to 20.3%, the Edema inhibition (6 hrs.) worked out at 40.1% and the Edema inhibition (9 hrs.) was 35.4%.

`CCCCCCCCCCCCOC(=O)C1CCC(=O)N1` (racemic) [Compound (106), Dodecyl DL-pyroglutamate]: the Edema inhibition reads like this: (3 hrs.) 17.4%; (6 hrs.) 40.1%; (9 hrs.) 40.0%.

Regarding `CCCCCCCCCCCCCOC(=O)C1CCC(=O)N1` (racemic) [Compound (108), Tridecyl DL-pyroglutamate], the Edema inhibition is, setting by setting: (3 hrs.) 18.8%; (6 hrs.) 35.3%; (9 hrs.) 38.1%.

Regarding `CCCCCCCCCCCCCCOC(=O)C1CCC(=O)N1` (racemic) [Compound (110), Tetradecyl DL-pyroglutamate], the Edema inhibition was 17.4% (3 hrs.), 38.0% (6 hrs.) and 38.6% (9 hrs.).

In the case of `CCCCCCCCCCCCCCCCCCCCOC(=O)C1CCC(=O)N1` (racemic) [Eicosanyl DL-pyroglutamate], the Edema inhibition (3 hrs.) was 9.2%, the Edema inhibition (6 hrs.) is 11.1% and the Edema inhibition (9 hrs.) is listed as 16.7%.

Regarding `CCOC(=O)C1CCC(=O)N1` (racemic) [Ethyl DL-pyroglutamate], the Edema inhibition is, setting by setting: (3 hrs.) 9.5%; (6 hrs.) 10.2%; (9 hrs.) 12.1%.

As for `CCCCCCCCCCCCCCCCCOC(=O)C1CCC(=O)N1` (racemic) [Heptadecyl DL-pyroglutamate], the Edema inhibition was 10.5% (3 hrs.), 12.8% (6 hrs.) and 14.8% (9 hrs.).

Turning to `CCCCCCCOC(=O)C1CCC(=O)N1` (racemic) [Heptyl DL-pyroglutamate], the Edema inhibition is, setting by setting: (3 hrs.) 10.7%; (6 hrs.) 10.9%; (9 hrs.) 9.5%.

As for `CCCCCCOC(=O)C1CCC(=O)N1` (racemic) [Hexyl DL-pyroglutamate], the Edema inhibition turned out to be 11.2% (3 hrs.), 11.5% (6 hrs.) and 11.0% (9 hrs.).

Consider `CCCCCCCCCCCCCCCCCCOC(=O)C1CCC(=O)N1` (racemic) [Octadecyl DL-pyroglutamate], for which the Edema inhibition is recorded as 9.6% (3 hrs.), 13.0% (6 hrs.) and 15.6% (9 hrs.).

As to `CCCCCCCCCCOC(=O)[C@@H]1CCC(=O)N1` [Compound (112), Decyl L-pyroglutamate], the Edema inhibition reads like this: (3 hrs.) 18.6%; (6 hrs.) 38.9%; (9 hrs.) 37.4%.

As to `CCCCCCCCCCCOC(=O)[C@@H]1CCC(=O)N1` [Compound (114), Undecyl L-pyroglutamate], the Edema inhibition (3 hrs.) is recorded as 20.2%, the Edema inhibition (6 hrs.) worked out at 38.5% and the Edema inhibition (9 hrs.) was 37.3%.

`CCCCCCCCCCCCOC(=O)[C@@H]1CCC(=O)N1` [Compound (116), Dodecyl L-pyroglutamate]: the Edema inhibition runs as follows: (3 hrs.) 19.8%; (6 hrs.) 40.2%; (9 hrs.) 40.3%.

Turning to `CCCCCCCCCCCCCOC(=O)[C@@H]1CCC(=O)N1` [Compound (118), Tridecyl L-pyroglutamate], the Edema inhibition is listed as 20.0% (3 hrs.), 38.5% (6 hrs.) and 36.8% (9 hrs.).

In the case of `CCCCCCCCCCCCCCOC(=O)[C@@H]1CCC(=O)N1` [Compound (120), Tetradecyl L-pyroglutamate], the Edema inhibition came out at 17.8% (3 hrs.), 38.5% (6 hrs.) and 39.6% (9 hrs.).
